Experimental data published in PubChem BioAssay AID1259411 (Chemical Carcinogenesis Research Information System (CCRIS), 2018).
Calls of active or inactive are those of the source. The rule behind the calls is not given here.

System: rodent carcinogenicity bioassays, tumor incidence
Assay: CCRIS carcinogenicity studies
Outline: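 Archive of carcinogenicity, mutagenicity, tumor promotion and tumor inhibition results drawn from journals, NCI reports and other sources, expert-reviewed; covers 1985-2011 and is no longer updated.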

O=C(O)CO
carcinogen call (Species: Mouse, Strain/Sex: SKH-1/Female (18/Group), Route: Dermal, Dose: 0, 4, 10% administered as topical cream (pH 3.5) , 5 d/wk, 40 wk, animals held an additional 12 wk for study duration of, Tumor Site: Type of Lesion: Skin: Carcinoma in situ, squamous cell carcinoma, basal cell carcinoma): inactive; negative. when synthetic solar light (ssl) at 0.3 and 0.6 the minimal erythema d
carcinogen call (Species: Mouse, Strain/Sex: SKH-1/Male (18/Group), Route: Dermal, Dose: 0, 4, 10% administered as topical cream (pH 3.5) , 5 d/wk, 40 wk, animals held an additional 12 wk for study duration of, Tumor Site: Type of Lesion: Skin: Carcinoma in situ, squamous cell carcinoma, basal cell carcinoma): inactive; negative. when synthetic solar light (ssl) at 0.3 and 0.6 the minimal erythema d

CN(C)c1nc(=O)n(C2CCCCC2)c(=O)n1C
carcinogen call (Species: DOG, Strain/Sex: BEAGLE/FEMALE, Route: ORAL, Dose: 0, 200, 1000 PPM IN DIET FOR 90 D OR 5000 PPM FOR 1 WK, THEN 2500 PPM FOR 4 D IN WK 2 THEN 3750 PPM FOR 3 D FOLLOWED BY, Dose: 0, 200, 1000 PPM IN DIET FOR 90 D OR 5000 PPM FOR 1 WK, THEN 2500 PPM FOR 4 D IN WK 2 THEN 3750 PPM FOR 3 D FOLLOWED BY): inactive; negative
carcinogen call (Species: DOG, Strain/Sex: BEAGLE/MALE, Route: ORAL, Dose: 0, 200, 1000 PPM IN DIET FOR 90 D OR 5000 PPM FOR 1 WK, THEN 2500 PPM FOR 4 D IN WK 2 THEN 3750 PPM FOR 3 D FOLLOWED BY, Dose: 0, 200, 1000 PPM IN DIET FOR 90 D OR 5000 PPM FOR 1 WK, THEN 2500 PPM FOR 4 D IN WK 2 THEN 3750 PPM FOR 3 D FOLLOWED BY): inactive; negative
carcinogen call (Species: MOUSE, Strain/Sex: CD-1/FEMALE, Route: ORAL, Dose: 0, 200, 2500, 10000 PPM IN DIET FOR 2 YR (STUDY DURATION: 2 YR), Dose: 0, 200, 2500, 10000 PPM IN DIET FOR 2 YR (STUDY DURATION: 2 YR)): inactive; negative
carcinogen call (Species: MOUSE, Strain/Sex: CD-1/MALE, Route: ORAL, Dose: 0, 200, 2500, 10000 PPM IN DIET FOR 2 YR (STUDY DURATION: 2 YR), Dose: 0, 200, 2500, 10000 PPM IN DIET FOR 2 YR (STUDY DURATION: 2 YR)): inactive; negative
carcinogen call (Species: RAT, Strain/Sex: CRL-CD/FEMALE, Route: ORAL, Dose: 0, 200, 1000, 2500 PPM IN DIET FOR 2 YR (STUDY DURATION: 2 YR), Dose: 0, 200, 1000, 2500 PPM IN DIET FOR 2 YR (STUDY DURATION: 2 YR)): inactive; negative
carcinogen call (Species: RAT, Strain/Sex: CRL-CD/MALE, Route: ORAL, Dose: 0, 200, 1000, 2500 PPM IN DIET FOR 2 YR (STUDY DURATION: 2 YR), Dose: 0, 200, 1000, 2500 PPM IN DIET FOR 2 YR (STUDY DURATION: 2 YR)): inactive; negative

O[C@@H]1[C@@H](O)[C@@H](O)OC[C@H]1O
carcinogen call (Species: RAT, Strain/Sex: F344/FEMALE, Route: ORAL (DIET), Dose: 0, 2.5%, 5% FOR 104 WKS (STUDY DURATION: 104 WKS), Dose: 0, 2.5%, 5% FOR 104 WKS (STUDY DURATION: 104 WKS)): inactive; negative
carcinogen call (Species: RAT, Strain/Sex: F344/MALE, Route: ORAL (DIET), Dose: 0, 2.5%, 5% FOR 104 WKS (STUDY DURATION: 104 WKS), Dose: 0, 2.5%, 5% FOR 104 WKS (STUDY DURATION: 104 WKS)): inactive; negative

COS(C)(=O)=O
carcinogen call (Species: MOUSE, Route: INTRAPERITONEAL, Tumor Site: Type of Lesion: LUNG): active; positive
carcinogen call (Species: MOUSE, Route: ORAL, Tumor Site: Type of Lesion: LUNG, THYMUS GLAND): active; positive
carcinogen call (Species: RAT, Strain/Sex: SPRAGUE-DAWLEY/MALE, Route: INHALATION, Dose: 0, 50 PPM 6 HR/D 5 D/WK FOR 30 D (STUDY DURATION: LIFETIME), Tumor Site: Type of Lesion: NASAL CAVITY: TUMORS): active; positive

FC(F)Cl
carcinogen call (Species: MOUSE, Strain/Sex: SWISS/FEMALE, Route: INHALATION, Dose: 0, 1000, 5000 PPM 4 HR/D 5 D/WK FOR 78 WK (STUDY DURATION: LIFETIME), Dose: 0, 1000, 5000 PPM 4 HR/D 5 D/WK FOR 78 WK (STUDY DURATION: LIFETIME)): inactive; negative
carcinogen call (Species: MOUSE, Strain/Sex: SWISS/MALE, Route: INHALATION, Dose: 0, 1000, 5000 PPM 4 HR/D 5 D/WK FOR 78 WK (STUDY DURATION: LIFETIME), Dose: 0, 1000, 5000 PPM 4 HR/D 5 D/WK FOR 78 WK (STUDY DURATION: LIFETIME)): inactive; negative
carcinogen call (Species: RAT, Strain/Sex: SPRAGUE-DAWLEY/FEMALE, Route: INHALATION, Dose: 0, 1000, 5000 PPM 4 HR/D 5 D/WK FOR 104 WK (STUDY DURATION: LIFETIME), Dose: 0, 1000, 5000 PPM 4 HR/D 5 D/WK FOR 104 WK (STUDY DURATION: LIFETIME)): inactive; negative
carcinogen call (Species: RAT, Strain/Sex: SPRAGUE-DAWLEY/FEMALE, Route: INHALATION, Dose: 0, 1000, 5000 PPM IN AIR 4 HR/D 5 D/WK FOR 104 WK (STUDY DURATION: LIFETIME), Dose: 0, 1000, 5000 PPM IN AIR 4 HR/D 5 D/WK FOR 104 WK (STUDY DURATION: LIFETIME), Tumor Site: Type of Lesion: [BRAIN WAS ONLY SITE EVALUATED]): inactive; negative
carcinogen call (Species: RAT, Strain/Sex: SPRAGUE-DAWLEY/MALE, Route: INHALATION, Dose: 0, 1000, 5000 PPM 4 HR/D 5 D/WK FOR 104 WK (STUDY DURATION: LIFETIME), Dose: 0, 1000, 5000 PPM 4 HR/D 5 D/WK FOR 104 WK (STUDY DURATION: LIFETIME)): inactive; negative
carcinogen call (Species: RAT, Strain/Sex: SPRAGUE-DAWLEY/MALE, Route: INHALATION, Dose: 0, 1000, 5000 PPM IN AIR 4 HR/D 5 D/WK FOR 104 WK (STUDY DURATION: LIFETIME), Dose: 0, 1000, 5000 PPM IN AIR 4 HR/D 5 D/WK FOR 104 WK (STUDY DURATION: LIFETIME), Tumor Site: Type of Lesion: [BRAIN WAS ONLY SITE EVALUATED]): inactive; negative

CC(=O)CC(C)C
carcinogen call (Species: Mouse, Strain/Sex: B6C3F1/N/Female, Route: Inhalation, Dose: 0, 450, 900, 1800 ppm 6 hr and 12 min/day, 5 d/wk for 105 wks, Dose: 0, 450, 900, 1800 ppm 6 hr and 12 min/day, 5 d/wk for 105 wks, Tumor Site: Type of Lesion: Liver: Hepatocellular adenoma (13/50, 15/50, 20/50, 23/50), Hepatocellular carcinoma (6/50, 5/50, 6/50, 11/50), Hepatoce, Tumor Site: Type of Lesion: Liver: Hepatocellular adenoma (13/50, 15/50, 20/50, 23/50), Hepatocellular carcinoma (6/50, 5/50, 6/50, 11/50), Hepatoce): equivocal
carcinogen call (Species: Mouse, Strain/Sex: B6C3F1/N/Male, Route: Inhalation, Dose: 0, 450, 900, 1800 ppm 6 hr and 12 min/day, 5 d/wk for 105 wks, Dose: 0, 450, 900, 1800 ppm 6 hr and 12 min/day, 5 d/wk for 105 wks, Tumor Site: Type of Lesion: Liver: Hepatocellular adenoma (17/50, 25/50, 23/50, 34/50), Hepatocellular carcinoma (12/50, 12/50, 10/50, 9/50), Hepato, Tumor Site: Type of Lesion: Liver: Hepatocellular adenoma (17/50, 25/50, 23/50, 34/50), Hepatocellular carcinoma (12/50, 12/50, 10/50, 9/50), Hepato): active; positive (ntp describes as some evidence)
carcinogen call (Species: Rat, Strain/Sex: F344/N/Female, Route: Inhalation, Dose: 0, 450, 900, 1800 ppm 6 hr and 12 min/d, 5 d/wk for 104 wks, Dose: 0, 450, 900, 1800 ppm 6 hr and 12 min/d, 5 d/wk for 104 wks, Tumor Site: Type of Lesion: Mesenchymal tumor malignant: (0/50, 0/50, 0/50, 2/50)): equivocal
carcinogen call (Species: Rat, Strain/Sex: F344/N/Male, Route: Inhalation, Dose: 0, 450, 900, 1800 ppm 6 hr and 12 min/d, 5 d/wk for 104 wks, Dose: 0, 450, 900, 1800 ppm 6 hr and 12 min/d, 5 d/wk for 104 wks, Tumor Site: Type of Lesion: Kidney: Renal tubule adenoma (2/50, 3/50, 3/50, 10/50), Renal tubule carcinoma (0/50, 1/50, 0/50, 2/50), Renal tubule ad, Tumor Site: Type of Lesion: Kidney: Renal tubule adenoma (2/50, 3/50, 3/50, 10/50), Renal tubule carcinoma (0/50, 1/50, 0/50, 2/50), Renal tubule ad): active; positive (ntp describes as some evidence)

CN(C)CCC(c1ccc(Cl)cc1)c1ccccn1 (centres undefined)
carcinogen call (Species: MOUSE, Strain/Sex: B6C3F1/FEMALE, Route: GAVAGE, Dose: 0, 100, 200 MG/KG IN DEIONIZED WATER 5 D/WK FOR 103 WK, Dose: 0, 100, 200 MG/KG IN DEIONIZED WATER 5 D/WK FOR 103 WK): inactive; negative
carcinogen call (Species: MOUSE, Strain/Sex: B6C3F1/MALE, Route: GAVAGE, Dose: 0, 25, 50 MG/KG IN DEIONIZED WATER 5 D/WK FOR 103 WK, Dose: 0, 25, 50 MG/KG IN DEIONIZED WATER 5 D/WK FOR 103 WK): inactive; negative
carcinogen call (Species: RAT, Strain/Sex: F344/FEMALE, Route: GAVAGE, Dose: 0, 30, 60 MG/KG IN DEIONIZED WATER 5 D/WK FOR 103 WK, Dose: 0, 30, 60 MG/KG IN DEIONIZED WATER 5 D/WK FOR 103 WK): inactive; negative
carcinogen call (Species: RAT, Strain/Sex: F344/FEMALE, Route: ORAL, Dose: 0, 1000 PPM IN DIET FOR 106 WK (STUDY DURATION: 130 WK)): inactive; negative
carcinogen call (Species: RAT, Strain/Sex: F344/MALE, Route: GAVAGE, Dose: 0, 15, 30 MG/KG IN DEIONIZED WATER 5 D/WK FOR 103 WK, Dose: 0, 15, 30 MG/KG IN DEIONIZED WATER 5 D/WK FOR 103 WK): inactive; negative
carcinogen call (Species: RAT, Strain/Sex: F344/MALE, Route: ORAL, Dose: 0, 1000 PPM IN DIET FOR 106 WK (STUDY DURATION: 130 WK)): inactive; negative
